# Test results reported in patent publication US9163012B2, “Carbamate and urea inhibitors of 11β-hydroxysteroid dehydrogenase 1” (Vitae Pharmaceuticals, Inc., priority 2009, dated 2015).
# Where two headings read alike, the source gives them in different places.
# Target: 11β-HSD1 (Homo sapiens (Human), UniProt P28845)
# Experiment: Biological Test Example 1: inhibition of a microsomal preparation of 11β-HSD1 (SPA)
# Assay type: biochemical
# Conditions: for inhibition at 0.111 µM: read-out: Average % inhibition at 111 nM
# Description: All reactions were carried out at rt in 96 well clear flexible PET Microbeta plates (PerkinElmer). […] After a 10 minute pre-incubation, 50 μL of enzyme solution containing microsomes isolated from CHO cells overexpressing human 11-HSD1 (10-20 μg/ml of total protein) was added, and the plates were incubated for 90 minutes at rt. The reaction was stopped by adding 50 μl of the SPA beads suspension containing 10 μM […], 5 mg/ml protein A coated YSi SPA beads (GE Healthcare) and 3.3 μg/ml of anti-cortisol antibody (East Coast Biologics) in Superblock buffer (Bio-Rad). The plates were shaken for 120 minutes at rt, and the SPA signal corresponding to [^3H]cortisol was measured on a Microbeta plate reader.
# [1] = Biological Test Example 1, 100 nM compound
# [2] = Biological Test Example 1, microsomes from CHO cells overexpressing human 11β-HSD1, read-out: IC50 Range
# [3] = Biological Test Example 1, read-out: IC50
# [4] = read-out: Average % inhibition at 100 nM, Biological Test Example 1, 100 nM compound
# [5] = Biological Test Example 1, 111 nM compound
# Chain of 11β-HSD1 (P28845 whole entry): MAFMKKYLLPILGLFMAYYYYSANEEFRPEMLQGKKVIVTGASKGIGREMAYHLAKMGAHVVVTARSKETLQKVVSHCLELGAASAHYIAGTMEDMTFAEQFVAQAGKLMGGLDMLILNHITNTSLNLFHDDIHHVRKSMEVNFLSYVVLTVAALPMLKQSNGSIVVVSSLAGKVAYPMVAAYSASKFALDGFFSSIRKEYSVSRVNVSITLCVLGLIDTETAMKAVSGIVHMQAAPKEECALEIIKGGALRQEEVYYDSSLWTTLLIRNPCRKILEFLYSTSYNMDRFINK
Compound,Average % inhibition at 100 nM [1] [%],IC50 [2] [nM],IC50 [3] [nM],inhibition at 0.1 µM [4] [%],also measured
"Cn1cc(-c2cnc(C3CCN(C(=O)OC4C5CC6CC4CC(C(N)=O)(C6)C5)C3)nc2)ccc1=O (single isomer, unassigned) [EXAMPLE 58 Isomer 2, 1-carbamoyl-4-adamantyl 3-(5-(1-methyl-6-oxo-1,6-dihydropyridin-3-yl)pyrimidin-2-yl)pyrrolidine-1-carboxylate]",3.8,> 100,> 100,,
"NC(=O)[C@]12CC3CC(C1)[C@@H](OC(=O)N1CC[C@H](n4c(=O)n(CCO)c5cc(F)ccc54)C1)C(C3)C2 [EXAMPLE 73, (S)-trans-1-carbamoyl-4-adamantyl 3-(5-fluoro-3-(2-hydroxyethyl)-2-oxo-2,3-dihydro-1H-benzo[d]imidazol-1-yl)pyrrolidine-1-carboxylate]",,< 100,4.52,93,
"NC(=O)[C@]12CC3CC(C1)[C@@H](OC(=O)N1CC[C@H](Oc4ccc(C(F)(F)F)cn4)C1)C(C3)C2 [EXAMPLE 6, (S)-(trans-(1-carbamoyl-4-adamantyl)) 3-(5-(trifluoromethyl)pyridin-2-yloxy)pyrrolidine-1-carboxylate]",,< 100,0.54,96.9,
"Cn1ccc(-c2csc(C3CCN(C(=O)O[C@H]4C5CC6CC4C[C@](C(N)=O)(C6)C5)C3)n2)cc1=O (stereo partly drawn) [EXAMPLE 56, trans-1-carbamoyl-4-adamantyl 3-(4-(1-methyl-2-oxo-1,2-dihydropyridin-4-yl)thiazol-2-yl)pyrrolidine-1-carboxylate]",,< 100,1.95,96.7,
"O=C(OC1C2CC3CC(C2)CC1C3)N1CCC[C@@H]1c1nc(-c2ccncc2)cs1 (stereo partly drawn) [EXAMPLE 50, (R)-2-adamantyl 2-(4-(pyridin-4-yl)thiazol-2-yl)pyrrolidine-1-carboxylate]",,< 100,0.91,98.2,
"NC(=O)[C@]12CC3CC(C1)[C@@H](OC(=O)N1CC[C@@H](Oc4ncc(F)cc4F)C1)C(C3)C2 (relative stereo) [EXAMPLE 1, (R)-(trans-(1-carbamoyl-4-adamantyl)) 3-(3,5-difluoropyridin-2-yloxy)pyrrolidine-1-carboxylate]",95.53,< 100,1.54,,
"Cc1csc(C2CCN(C(=O)OC3C4CC5CC3CC(C(N)=O)(C5)C4)C2)n1 (single isomer, unassigned) [EXAMPLE 42 Isomer 2, cis-1-carbamoyl-4-adamantyl 3-(4-methylthiazol-2-yl)pyrrolidine-1-carboxylate]",21.8,,,,
"Cn1c(C2CCCN2C(=O)OC2C3CC4CC2CC(C(N)=O)(C4)C3)nc2ccccc21 (centres unmarked) [EXAMPLE 32, (1-carbamoyl-4-adamantyl) 2-(1-methyl-1H-benzo[d]imidazol-2-yl)pyrrolidine-1-carboxylate]",,< 100,1.08,94.7,
"Cn1c(C2CCN(C(=O)O[C@H]3C4CC5CC3C[C@](C(N)=O)(C5)C4)C2)nc2ccccc21 (stereo partly drawn) [EXAMPLE 31, (trans-1-carbamoyl-4-adamantyl) 3-(1-methyl-1H-benzo[d]imidazol-2-yl)pyrrolidine-1-carboxylate]",,< 100,91.7,44.1,
"NC(=O)[C@]12CC3CC(C1)[C@@H](OC(=O)N1CC[C@@H](n4c(=O)[nH]c5ccccc54)C1)C(C3)C2 [EXAMPLE 61, (R)-trans-1-carbamoyl-4-adamantyl 3-(2-oxo-2,3-dihydro-1H-benzo[d]imidazol-1-yl)pyrrolidine-1-carboxylate]",,< 100,4.17,89.9,
"O=C(O)COCC1(c2ccccc2)CCN(C(=O)OC2C3CC4CC(C3)CC2C4)CC1 (centres unmarked) [EXAMPLE 16, 2-((1-(2-adamantyloxycarbonyl)-4-phenylpiperidin-4-yl)methoxy)acetic acid]",,< 100,43.8,,inhibition at 0.111 µM [5]: 72.3%
"Cc1csc(C2CCN(C(=O)OC3C4CC5CC3CC(C(N)=O)(C5)C4)C2)n1 (single isomer, unassigned) [EXAMPLE 42 Isomer 1, transl-carbamoyl-4-adamantyl 3-(4-methylthiazol-2-yl)pyrrolidine-1-carboxylate]",91.8,,,,
"COc1cnc(C2CCN(C(=O)OC3C4CC5CC3CC(C(N)=O)(C5)C4)C2)nc1 (single isomer, unassigned) [EXAMPLE 44 Isomer 1, 1-carbamoyl-4-adamantyl 3-(5-methoxypyrimidin-2-yl)pyrrolidine-1-carboxylate]",95.2,,,,
"Cn1ccc(-c2csc([C@H]3CCCN3C(=O)O[C@H]3C4CC5CC3C[C@](C(N)=O)(C5)C4)n2)cc1=O [EXAMPLE 55, (R)-trans-1-carbamoyl-4-adamantyl 2-(4-(1-methyl-2-oxo-1,2-dihydropyridin-4-yl)thiazol-2-yl)pyrrolidine-1-carboxylate]",,< 100,2.07,93.1,
"Cc1ccc(C2CCN(C(=O)OC3C4CC5CC3CC(C(N)=O)(C5)C4)C2)nn1 (single isomer, unassigned) [EXAMPLE 37 Isomer 1, trans-1-carbamoyl-4-adamantyl 3-(6-methylpyridazin-3-yl)pyrrolidine-1-carboxylate]",76.6,,,,
"CCOC(=O)C1(Cc2ccccc2OC)CCCN(C(=O)OC2C3CC4CC(C3)CC2C4)C1 (centres unmarked) [EXAMPLE 14, 1-(2-adamantyl) 3-ethoxycarbonyl-3-(2-methoxybenzyl)piperidine-1-carboxylate]",,< 100,,,inhibition at 0.111 µM: 87.6%; IC50 (read-out: IC50): 7.15 nM
"O=C(O)c1ccc(C2CCCN(C(=O)OC3C4CC5CC(C4)CC3C5)C2)cc1 (centres unmarked) [EXAMPLE 18, 4-(1-(2-adamantyloxycarbonyl)piperidin-3-yl)benzoic acid]",,< 100,27.8,,inhibition at 0.111 µM [5]: 82.2%
"NC(=O)[C@]12CC3CC(C1)[C@@H](OC(=O)N1CC[C@@H](Oc4ccc5nccn5n4)C1)C(C3)C2 [EXAMPLE 3, (R)-(trans-(1-carbamoyl-4-adamantyl)) 3-(imidazo[1,2-b]pyridazin-6-yloxy)pyrrolidine-1-carboxylate]",,< 100,6.39,92.1,
"Cc1cc(C2CCN(C(=O)OC3C4CC5CC3CC(C(N)=O)(C5)C4)C2)nn1C (single isomer, unassigned) [EXAMPLE 40 Isomer 2, 1-carbamoyl-4-adamantyl 3-(1,5-dimethyl-1H-pyrazol-3-yl)pyrrolidine-1-carboxylate]",5.2,> 100,> 100,,
"Cc1nc2cc(C#N)ccc2n1[C@H]1CCN(C(=O)OC2C3CC4CC2CC(C(N)=O)(C4)C3)C1 (stereo partly drawn) [EXAMPLE 75, (S)-1-carbamoyl-4-adamantyl 3-(5-cyano-2-methyl-1H-benzo[d]imidazol-1-yl)pyrrolidine-1-carboxylate]",,< 100,5.03,39.1,
"NC(=O)[C@]12CC3CC(C1)[C@@H](OC(=O)N1CCC(c4ncc(Cl)cn4)C1)C(C3)C2 (single isomer, unassigned) [EXAMPLE 26 Isomer 1a, (1-carbamoyl-4-adamantyl) 3-(5-chloropyrimidin-2-yl)pyrrolidine-1-carboxylate]",102.6,< 100,1.15,,
"Cc1nc2cccc(Cl)c2n1[C@@H]1CCN(C(=O)OC2C3CC4CC2CC(C(N)=O)(C4)C3)C1 (stereo partly drawn) [EXAMPLE 59, (R)-1-carbamoyl-4-adamantyl 3-(7-chloro-2-methyl-1H-benzo[d]imidazol-1-yl)pyrrolidine-1-carboxylate]",,< 100,1.92,96.7,
"Cc1ccc(C2CCN(C(=O)OC3C4CC5CC3CC(C(N)=O)(C5)C4)C2)nc1 (single isomer, unassigned) [EXAMPLE 35 Isomer 2, cis-1-carbamoyl-4-adamantyl 3-(5-methylpyridin-2-yl)pyrrolidine-1-carboxylate]",8.1,> 100,> 100,,
"O=C(O[C@H]1C2CC3CC1C[C@](O)(C3)C2)N1CC[C@@H](Oc2ccc(C(F)(F)F)cn2)C1 [EXAMPLE 4, (R)-(trans-(1-hydroxy-4-adamantyl)) 3-(5-(trifluoromethyl)pyridin-2-yloxy)pyrrolidine-1-carboxylate]",,< 100,2.63,90.3,
"O=C(OC1C2CC3CC1CC(O)(C3)C2)N1CCC(c2ncc(Cl)cn2)C1 (single isomer, unassigned) [EXAMPLE 24 Isomer 1, trans-1-hydroxy-4-adamantyl 3-(5-chloropyrimidin-2-yl)pyrrolidine-1-carboxylate]",98.6,,,,
"NC(=O)[C@]12CC3CC(C1)[C@@H](OC(=O)N1CCCC1c1ccccn1)C(C3)C2 (stereo partly drawn) [EXAMPLE 19, trans-1-carbamoyl-4-adamantyl 2-(pyridin-2-yl)pyrrolidine-1-carboxylate]",,< 100,6.74,,inhibition at 0.1 µM (read-out: Average % inhibition at 100 nM): 93.2%
"Cc1ccnc(C2CCN(C(=O)OC3C4CC5CC3CC(C(N)=O)(C5)C4)C2)n1 (single isomer, unassigned) [EXAMPLE 38 Isomer 2, 1-carbamoyl-4-adamantyl 3-(4-methylpyrimidin-2-yl)pyrrolidine-1-carboxylate]",10.7,> 100,> 100,,
